Key:
[1] = tested on: Mice (males, C3H type); experiment: Hair growth model in mice in the resting phase of the hair cycle (weight of hair after 18 days of topical application); type: in vivo
From the text: Data was objectively assessed by the experiments given hereafter in an already established hair growth model in mice [Inaoka Y, et al. 1994, 42:530-3.], employing treatment versus controls. As a positive control, minoxidil 5% was used. […] The present invention thus fulfills the need for a natural combination of plant extracts and provides the advantages of unanimous use and excellent efficacy. In mice, the hair growth and effluvium are a continuous cyclic process. […] Therefore, any hair growth during this period is non-physiologic and induced by external agents. […] Any research related to this model should employ minoxidil as the “golden standard” and as an essential positive control. Mice (males, C3H type), which were in the resting phase in their hair cycle, i.e. at 7 weeks of age, were employed in these experiments. The skin of the back of the mice was subjected to a complete hair cut by an electric razor, with areas of approximately 2.5×4 cm. Different solutions, as will be further described, (100 μL/day) were applied with a syringe 6 times a week for 18 days, and the skin was further massaged. At the end of the experiment, the animals were sacrificed and the skin of the back was excised. The excised skin was fixed on frame consisting of a metal disc with a radius of 0.9 cm. Hairs were cut by a scalpel, collected and weighted. […] Data was calculated by SigmaStat version 2.0, Jandel.

[2] = tested on: hair loss; details: at the more effective higher concentrations; cited from earlier work
[3] = tested on: hair loss; details: after at least one-year daily uptake; 39% hair growth in control group; cited from earlier work

| Compound | Weight Of Hair ([1]; C3H male mice, 7 weeks old, 100 μL/day topically 6 times a week for 18 days, hair from excised back skin, disc of radius 0.9 cm, control (placebo) 2.52 mg) | increase of hair weight as compared to control mice ([1]; C3H mice, topical, 18 days, versus placebo-treated control) | side effects [2] | success (hair growth) [3] |
| --- | --- | --- | --- | --- |
| Nc1cc(N2CCCCC2)nc(N)[n+]1[O-] [Minoxidil 5.0%, minoxidil] | 4.07 mg | about 65% | may cause hypotension or hypertrichosis | – |
| CC(C)(C)NC(=O)[C@H]1CC[C@H]2[C@@H]3CC[C@H]4NC(=O)C=C[C@]4(C)[C@H]3CC[C@]12C [Finasteride] | – | – | – | 60% |
